The text below walks through data of US20170037028A1 (BAYER PHARMA AKTIENGESELLSCHAFT, priority 2013, published 2017).

In the first experiment the target is T1, GLUT1 (Homo sapiens, UniProt P11166).
T1 sequence (P11166 1-492): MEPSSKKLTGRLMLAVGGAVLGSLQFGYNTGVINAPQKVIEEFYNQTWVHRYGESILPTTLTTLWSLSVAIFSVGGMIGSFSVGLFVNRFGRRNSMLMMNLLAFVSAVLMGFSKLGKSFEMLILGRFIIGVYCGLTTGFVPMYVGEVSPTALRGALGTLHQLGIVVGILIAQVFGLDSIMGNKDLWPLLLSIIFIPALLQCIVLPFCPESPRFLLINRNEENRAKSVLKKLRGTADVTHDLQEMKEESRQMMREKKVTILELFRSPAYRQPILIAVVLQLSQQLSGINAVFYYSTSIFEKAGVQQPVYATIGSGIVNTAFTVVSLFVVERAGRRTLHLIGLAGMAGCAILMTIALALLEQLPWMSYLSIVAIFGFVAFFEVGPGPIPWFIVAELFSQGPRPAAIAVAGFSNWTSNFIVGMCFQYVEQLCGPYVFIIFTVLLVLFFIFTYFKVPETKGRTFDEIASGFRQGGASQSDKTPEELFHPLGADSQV
Kind of experiment: Indirect measurement of GLUT1 activity by quantification of intracellular ATP levels (glucose induced ATP increase). The experiment is classed as cell-based. Also noted: endogenous in cells; host or cells: DLD1 or CHO-K1. As to conditions: DLD1 cells; 0.1 mM glucose, 1 μM Rotenone, 15 min; CellTiter-Glo ATP readout; IC50 values standardized to cytochalasin B IC50 values; read-out: IC50 regarding glucose induced ATP increase (GLUT1 inhibition). The method in brief:
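Intracellular ATP was measured by CellTiter-Glo luminescence as an indirect readout of transport: glucose-driven for GLUT1, fructose-driven for GLUT2. DLD1 or CHO-K1 cells were used alongside an oxidative phosphorylation inhibitor. Beforehand, cells were held overnight in glucose-free 1% FCS medium to deplete ATP.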
On the technique in general: ATP-based viability assays read luminescence as a measure of living cells.
For orientation: IC50 means the concentration that inhibits the measured activity by half. On to `Cc1c(NC(=O)c2cc(C(N)=O)nc3cc(F)ccc23)c(C(F)(F)F)nn1Cc1cccc(C#N)c1` [Example 1578], for which the IC50 was 25 nM.

The same experiment, now with this note: read-out: IC50 regarding glucose induced ATP increase (GLUT1 inhibition).
For the molecule `COc1cc(C#N)ccc1Cn1nc(C(F)(F)F)c(NC(=O)c2cc(C(N)=O)nc3cc(F)ccc23)c1C` [Example 1646], the IC50 amounted to 2.3 nM.

With `Cc1ccc(C#N)c(Cn2nc(C)c(NC(=O)c3cc(C(N)=O)nc4cc(F)c(Cl)cc34)c2C)c1` [Example 1699], the IC50 amounted to 11.3 nM.

Consider `COc1ccc(Cn2nc(C)c(NC(=O)c3cc(C(N)=O)nc4ccccc34)c2C)cn1` [Example 282, N^4-{1-[(6-methoxypyridin-3-yl)methyl]-3,5-dimethyl-1H-pyrazol-4-yl}quinoline-2,4-dicarboxamide], for which the half-inhibitory concentration (IC50) was 3.2 nM.

On to `Cc1nn(Cc2ccc(C(=O)NCCC(C)O)cc2)c(C)c1NC(=O)c1cc(C(F)(F)F)nc2ccc(Br)cc12` (centres unmarked) [Example 1211], for which the IC50 worked out at 581 nM.

Turning to `Cc1nn(Cc2ccc(C#N)cc2)c(C)c1NC(=O)c1cc(C(N)=O)nc2c(Cl)cccc12` [Example 255, 8-chloro-N^4-[1-(4-cyanobenzyl)-3,5-dimethyl-1H-pyrazol-4-yl]quinoline-2,4-dicarboxamide], the IC50 was 1.4 nM.

With `Cc1nn(Cc2ccc(C(N)=O)cc2)c(C)c1NC(=O)c1cc(C(N)=O)nc2cc(F)ccc12` [Example 1424], the IC50 stood at 69.1 nM.

For the molecule `Cc1nn(Cc2ccc(C(=O)NCCN3CCCCC3)cc2)c(C)c1NC(=O)c1cc(C(F)(F)F)nc2ccc(Br)cc12` [Example 1150], the IC50 came to 128 nM.

For the molecule `Cc1nn(Cc2ccc(C#N)cc2)c(C)c1NC(=O)c1cc(S(N)(=O)=O)nc2ccccc12` [Example 1573], the half-maximal inhibitory concentration (IC50) stood at 419 nM.

As for `Cc1c(NC(=O)c2cc(C(F)(F)F)nc3ccc(Br)cc23)c(C(F)(F)F)nn1Cc1ccc(S(C)(=O)=O)cc1` [Example 1430], the IC50 worked out at 66.3 nM.

In the case of `Cc1c(NC(=O)c2cc(C(N)=O)nc3cc(F)ccc23)c(C(F)(F)F)nn1Cc1cc(F)ccc1C#N` [Example 1653], the half-inhibitory concentration (IC50) came to 266 nM.

Consider `Cc1nn(Cc2ccc(F)cc2)c(C(=O)N(C)C)c1NC(=O)c1cc(C(N)=O)nc2ccccc12` [Example 1250], for which the 50% inhibitory concentration (IC50) is 1670 nM.

Take `Cc1nonc1Cn1nc(C)c(NC(=O)c2cc(C(F)(F)F)nc3ccc(Br)cc23)c1C` [Example 1520]: the IC50 turned out to be 747 nM.

Regarding `Cc1cccc(Cn2nc(C(F)(F)F)c(NC(=O)c3cc(C(N)=O)nc4cc(F)c(Cl)cc34)c2C)c1` [Example 1481], the IC50 worked out at 5.5 nM.

`Cc1nn(Cc2ccc(F)cc2)c(C)c1NC(=O)c1cc(C(F)(F)F)nc2cc(F)c(F)cc12` [Example 39, 6,7-difluoro-N-[1-(4-fluorobenzyl)-3,5-dimethyl-1H-pyrazol-4-yl]-2-(trifluoromethyl)quinoline-4-carboxamide]: the half-maximal inhibitory concentration (IC50) amounted to 30 nM.

With `Cc1c(NC(=O)c2cc(C(N)=O)nc3cc(F)ccc23)c(C(F)(F)F)nn1C(C)c1ccccc1` (single isomer, unassigned) [Example 336, (S or R)-7-fluoro-N^4-[5-methyl-1-(1-phenylethyl)-3-(trifluoromethyl)-1H-pyrazol-4-yl]quinoline-2,4-dicarboxamide], the IC50 was 150 nM.

Consider `COc1cccc(Cn2nc(C(F)(F)F)c(NC(=O)c3cc(C(N)=O)nc4ccccc34)c2C)c1` [Example 1448], for which the half-maximal inhibitory concentration (IC50) turned out to be 6.9 nM.

On to `Cc1nn(Cc2ccc(F)cc2)c(C)c1NC(=O)c1cc(C2CC2)nc2ccccc12` [Example 19, 2-cyclopropyl-N-[1-(4-fluorobenzyl)-3,5-dimethyl-1H-pyrazol-4-yl]quinoline-4-carboxamide], for which the IC50 was 12.7 nM.

Take `CCc1ccc(Cn2nc(C(F)(F)F)c(NC(=O)c3cc(C(N)=O)nc4cc(F)c(Cl)cc34)c2C)cc1` [Example 1415]: the IC50 amounted to 3.3 nM.

Consider `Cc1cc(C(=O)Nc2c(C)nn(Cc3ccc(F)cc3)c2C)c2cc(C#N)ccc2n1` [Example 1237], for which the IC50 was 1320 nM.

As to `COc1cc(C(=O)Nc2c(C)nn(Cc3cccc(F)c3)c2C)c2ccccc2n1` [Example 87, N-[1-(3-fluorobenzyl)-3,5-dimethyl-1H-pyrazol-4-yl]-2-methoxyquinoline-4-carboxamide], the IC50 was found to be 267 nM.

For `Cc1c(NC(=O)c2cc(C(N)=O)nc3cc(F)ccc23)c(C(F)(F)F)nn1Cc1ccc(C(=O)N2CCC2)cc1` [Example 372, N^4-{1-[4-(azetidin-1-ylcarbonyl)benzyl]-5-methyl-3-(trifluoromethyl)-1H-pyrazol-4-yl}-7-fluoroquinoline-2,4-dicarboxamide], the IC50 stood at 20 nM.

As for `Cc1nn(Cc2ccn(C)n2)c(C)c1NC(=O)c1cc(C(N)=O)nc2ccccc12` [Example 1569], the IC50 worked out at 67.5 nM.

Consider `CCS(=O)(=O)N1CCC(Cn2nc(C)c(NC(=O)c3cc(C(N)=O)nc4ccccc34)c2C)CC1` [Example 407, N^4-(1-{[1-(ethylsulfonyl)piperidin-4-yl]methyl}-3,5-dimethyl-1H-pyrazol-4-yl)quinoline-2,4-dicarboxamide], for which the IC50 came to 2.1 nM.

As to `CC(=O)c1cccc(Cn2nc(C(F)(F)F)c(NC(=O)c3cc(C(N)=O)nc4cccc(F)c34)c2C)c1` [Example 1620], the IC50 was 96.3 nM.

For `Cc1nn(Cc2ccc(C(=O)N3CCN(CCO)CC3)cc2)c(C)c1NC(=O)c1cc(C(F)(F)F)nc2ccc(Br)cc12` [Example 1192], the IC50 is 339 nM.

With `Cc1c(NC(=O)c2cc(C(=O)NS(C)(=O)=O)nc3ccccc23)c(C(F)(F)F)nn1Cc1ccc(C#N)cc1` [Example 426, N^4-[1-(4-cyanobenzyl)-5-methyl-3-(trifluoromethyl)-1H-pyrazol-4-yl]-N^2-(methylsulfonyl)quinoline-2,4-dicarboxamide], the IC50 is 2530 nM.

For the molecule `Cc1nn(Cc2ccc(C#N)nc2)c(C)c1NC(=O)c1cc(C(N)=O)nc2ccc(F)cc12` [Example 1086], the IC50 was found to be 31.6 nM.

On to `CNC(=O)c1cc(C(=O)Nc2c(C(F)(F)F)nn(Cc3ccc(F)cc3)c2C)c2ccccc2n1` [Example 178, N^4-[1-(4-fluorobenzyl)-5-methyl-3-(trifluoromethyl)-1H-pyrazol-4-yl]-N2-methylquinoline-2,4-dicarboxamide], for which the IC50 is 78.5 nM.

For `COc1cc(C(=O)Nc2c(C(F)(F)F)nn(Cc3ccc(C#N)nc3)c2C)c2ccccc2n1` [Example 1128], the IC50 was 86.5 nM.

As to `Cc1nn(Cc2ccc(C(F)(F)F)cc2)c(C)c1NC(=O)c1cc(C(N)=O)nc2cc(F)ccc12` [Example 1599], the concentration for half-maximal inhibition (IC50) worked out at 6.5 nM.

Turning to `CC(=O)N1CCC(Cn2nc(C)c(NC(=O)c3cc(C(N)=O)nc4ccccc34)c2C)CC1` [Example 1213], the IC50 was 614 nM.

Turning to `Cc1c(NC(=O)c2cc(C(N)=O)nc3cc(F)ccc23)c(C(F)(F)F)nn1Cc1ccc(C(=O)NCCO)cc1` [Example 375, 7-fluoro-N^4-[1-{4-[(2-hydroxyethyl)carbamoyl]benzyl}-5-methyl-3-(trifluoromethyl)-1H-pyrazol-4-yl]quinoline-2,4-dicarboxamide], the IC50 is 123 nM.

`Cc1c(NC(=O)c2cc(C(N)=O)nc3ccccc23)c(C(F)(F)F)nn1Cc1ccc(C#N)cn1` [Example 361, N^4-{1-[(5-cyanopyridin-2-yl)methyl]-5-methyl-3-(trifluoromethyl)-1H-pyrazol-4-yl}quinoline-2,4-dicarboxamide]: the IC50 is 4.4 nM.

As for `Cc1c(NC(=O)c2cc(C(N)=O)nc3ccc(N4CCCCC4)cc23)c(C(F)(F)F)nn1Cc1ccc(C#N)cc1` [Example 345, N^4-[1-(4-cyanobenzyl)-5-methyl-3-(trifluoromethyl)-1H-pyrazol-4-yl]-6-(piperidin-1-yl)quinoline-2,4-dicarboxamide], the IC50 was found to be 7.2 nM.

As for `Cc1nn(Cc2cccnc2C#N)c(C)c1NC(=O)c1cc(C(N)=O)nc2ccccc12` [Example 223, N^4-{1-[(2-cyanopyridin-3-yl)methyl]-3,5-dimethyl-1H-pyrazol-4-yl}quinoline-2,4-dicarboxamide], the IC50 is 11.1 nM.

Consider `COc1cccc(Cn2nc(C)c(NC(=O)c3cc(OC)nc4ccccc34)c2C)c1` [Example 81, 2-methoxy-N-[1-(3-methoxybenzyl)-3,5-dimethyl-1H-pyrazol-4-yl]quinoline-4-carboxamide], for which the IC50 was determined as 229 nM.

`Cc1nn(C(C)c2ccc(C#N)cc2)c(C)c1NC(=O)c1cc(C(N)=O)nc2c(F)cccc12` (racemic) [Example 331, (±)-N^4-{1-[1-(4-cyanophenyl)ethyl]-3,5-dimethyl-1H-pyrazol-4-yl}-8-fluoroquinoline-2,4-dicarboxamide]: the half-inhibitory concentration (IC50) was determined as 2.5 nM.

Regarding `COc1ccc(CCCn2nc(C)c(NC(=O)c3cc(C(N)=O)nc4ccccc34)c2C)cc1` [Example 284, N^4-{1-[3-(4-methoxyphenyl)propyl]-3,5-dimethyl-1H-pyrazol-4-yl}quinoline-2,4-dicarboxamide], the IC50 stood at 9 nM.

For `Cc1c(NC(=O)c2cc(C(N)=O)nc3ccccc23)c(C(F)(F)F)nn1Cc1ccc(F)cc1C#N` [Example 1659], the IC50 was determined as 4.7 nM.

Regarding `Cc1c(NC(=O)c2cc(C(=O)NCCO)nc3cc(F)ccc23)c(C(F)(F)F)nn1Cc1ccc(C#N)cc1` [Example 1403], the IC50 amounted to 245 nM.
